Legend:
[1] = Kit225 T Cell Assay, IL-23-stimulated STAT-dependent luciferase reporter; format: cell-based; conditions: Kit225 T cells, 20 ng/mL human recombinant IL-23, 5-6 hours, luciferase expression
Description: (§1) Kit225 T cells with a stably-integrated STAT-dependent luciferase reporter were plated in RPMI (Gibco) containing 10% heat-inactivated FBS (Gibco) and 100 U/mL PenStrep (Gibco). The cells were then stimulated with either 20 ng/mL human recombinant IL-23 or 200 U/mL human recombinant IFNα (PBL InterferonSource) for 5-6 hours. Luciferase expression was measured using the STEADY-GLO® Luciferase Assay System (Promega) according to the manufacturer's instructions. Inhibition data were calculated by comparison to no inhibitor control wells for 0% inhibition and non-stimulated control wells for 100% inhibition. Dose response curves were generated to determine the concentration required to inhibit 50% of cellular response (IC50) as derived by non-linear regression analysis.

[2] = test system: IFNα Kit225 Reporter (Kit225 T cells with a stably-integrated STAT-dependent luciferase reporter, stimulated with IFNα); experiment: Kit225 T Cell Assay, IFNα-stimulated STAT-dependent luciferase reporter; format: cell-based; conditions: 200 U/mL human recombinant IFNα, 5-6 hours, luciferase expression
Description: as §1

Row | SMILES | IC50 [1] | IC50 [2]
1 | CC(C)(C)Oc1nc(Nc2cc(NC3CCOCC3)nn3c(C#N)cnc23)ccc1C(=O)N1CCCC1 [Example 24, 8-{[6-(tert-butoxy)-5-(pyrrolidine-1-carbonyl)pyridin-2-yl]amino}-6-[(oxan-4-yl)amino]imidazo[1,2-b]pyridazine-3-carbonitrile] | 700 nM | 600 nM
2 | CC(C)(C)CNc1cc(Nc2cccc(NC(=O)C3CC3)n2)c2ncc(C#N)n2n1 [Example 28, N-[6-({3-cyano-6-[(2,2-dimethylpropyl)amino]imidazo[1,2-b]pyridazin-8-yl}amino)pyridin-2-yl]cyclopropanecarboxamide] | 260 nM | 460 nM
3 | CC(C)Oc1nc(Nc2cc(NC3CCOCC3)nn3c(C#N)cnc23)ccc1C(=O)N1CCCC1 [Example 43, 6-[(oxan-4-yl)amino]-8-{[6-(propan-2-yloxy)-5-(pyrrolidine-1-carbonyl)pyridin-2-yl]amino}imidazo[1,2-b]pyridazine-3-carbonitrile] | 160 nM | 450 nM
4 | CC(C)(C)N1CCN(c2cccc(Nc3cc(N[C@@H]4CCCC[C@H]4O)nn4c(C#N)cnc34)n2)C1=O [Example 6, 8-{[6-(3-tert-butyl-2-oxoimidazolidin-1-yl)pyridin-2-yl]amino}-6-{[(1R,2R)-2-hydroxycyclohexyl]amino}imidazo[1,2-b]pyridazine-3-carbonitrile] | 580 nM | 450 nM
5 | CC(C)Oc1nc(Nc2cc(N[C@@H]3CCCC[C@H]3O)nn3c(C#N)cnc23)ccc1C(=O)N1CCCC1 [Example 1, 6-{[(1R,2R)-2-hydroxycyclohexyl]amino}-8-{[6-(propan-2-yloxy)-5-(pyrrolidine-1-carbonyl)pyridin-2-yl]amino}imidazo[1,2-b]pyridazine-3-carbonitrile] | 240 nM | 830 nM
6 | CN(C)c1nc(Nc2cc(N[C@@H]3CCCC[C@H]3O)nn3c(C#N)cnc23)ccc1C(=O)N1CCN(c2ccccc2F)CC1 [Example 30, 8-{[6-(dimethylamino)-5-[4-(2-fluorophenyl)piperazine-1-carbonyl]pyridin-2-yl]amino}-6-{[(1R,2R)-2-hydroxycyclohexyl]amino}imidazo[1,2-b]pyridazine-3-carbonitrile] | 390 nM | 730 nM
7 | CC(C)(C)C(=O)Nc1cccc(Nc2cc(NCC3CC3)nn3c(C#N)cnc23)n1 [Example 26, N-[6-({3-cyano-6-[(cyclopropylmethyl)amino]imidazo[1,2-b]pyridazin-8-yl}amino)pyridin-2-yl]-2,2-dimethylpropanamide] | 900 nM | 200 nM
8 | N#Cc1cnc2c(Nc3cccc(N4CCOCC4=O)n3)cc(N[C@@H]3CCCC[C@H]3O)nn12 [Example 56, 6-{[(1R,2R)-2-hydroxycyclohexyl]amino}-8-{[6-(3-oxomorpholin-4-yl)pyridin-2-yl]amino}imidazo[1,2-b]pyridazine-3-carbonitrile] | 430 nM | 380 nM
9 | CN(C)c1nc(Nc2cc(N[C@@H]3CCCC[C@H]3O)nn3c(C#N)cnc23)ccc1C(=O)N1CCCC1 [Example 3, 8-{[6-(dimethylamino)-5-(pyrrolidine-1-carbonyl)pyridin-2-yl]amino}-6-{[(1R,2R)-2-hydroxycyclohexyl]amino}imidazo[1,2-b]pyridazine-3-carbonitrile] | 140 nM | 190 nM
10 | CC(=O)NCc1ccc(-c2cccc(Nc3cc(NC4CCOCC4)nn4c(C#N)cnc34)n2)cc1 [Example 50, N-({4-[6-({3-cyano-6-[(oxan-4-yl)amino]imidazo[1,2-b]pyridazin-8-yl}amino)pyridin-2-yl]phenyl}methyl)acetamide] | 1100 nM | 760 nM
11 | CC(=O)NCc1ccc(-c2cccc(Nc3cc(N[C@@H]4CCCC[C@H]4O)nn4c(C#N)cnc34)n2)cc1 [Example 37, N-[(4-{6-[(3-cyano-6-{[(1R,2R)-2-hydroxycyclohexyl]amino}imidazo[1,2-b]pyridazin-8-yl)amino]pyridin-2-yl}phenyl)methyl]acetamide] | 470 nM | 550 nM
12 | COc1cccc2ccc(Nc3cc(NC45CC6CC(CC(O)(C6)C4)C5)nn4c(C#N)cnc34)nc12 [Example 18, 6-[(3-hydroxyadamantan-1-yl)amino]-8-[(8-methoxyquinolin-2-yl)amino]imidazo[1,2-b]pyridazine-3-carbonitrile] | 190 nM | 460 nM
13 | CS(=O)(=O)NCc1ccc(-c2cccc(Nc3cc(N[C@@H]4CCCC[C@H]4O)nn4c(C#N)cnc34)n2)cc1 [Example 38, N-[(4-{6-[(3-cyano-6-{[(1R,2R)-2-hydroxycyclohexyl]amino}imidazo[1,2-b]pyridazin-8-yl)amino]pyridin-2-yl}phenyl)methyl]methanesulfonamide] | 890 nM | 760 nM
14 | CC(C)(CC(N)=O)NC(=O)c1cccc(Nc2cc(NC34CC5CC(CC(O)(C5)C3)C4)nn3c(C#N)cnc23)n1 [Example 42, 3-{[6-({3-cyano-6-[(3-hydroxyadamantan-1-yl)amino]imidazo[1,2-b]pyridazin-8-yl}amino)pyridin-2-yl]formamido}-3-methylbutanamide] | 710 nM | 640 nM
15 | N#Cc1cnc2c(Nc3cccc(N4C(=O)NC5(CCCCC5)C4=O)n3)cc(N[C@@H]3CCCC[C@H]3O)nn12 [Example 58, 8-[(6-{2,4-dioxo-1,3-diazaspiro[4.5]decan-3-yl}pyridin-2-yl)amino]-6-{[(1R,2R)-2-hydroxycyclohexyl]amino}imidazo[1,2-b]pyridazine-3-carbonitrile] | 550 nM | 810 nM
16 | N#Cc1cnc2c(Nc3cccc(C(F)(F)F)n3)cc(NC34CC5CC(O)(CC(O)(C5)C3)C4)nn12 [Example 20, 6-[(3,5-dihydroxyadamantan-1-yl)amino]-8-{[6-(trifluoromethyl)pyridin-2-yl]amino}imidazo[1,2-b]pyridazine-3-carbonitrile] | 440 nM | 150 nM
17 | N#Cc1cnc2c(Nc3ccc(C(=O)N4CCCC4)c(OCC(F)F)n3)cc(N[C@H]3CCCC[C@@H]3O)nn12 [Example 13, 8-{[6-(2,2-difluoroethoxy)-5-(pyrrolidine-1-carbonyl)pyridin-2-yl]amino}-6-{[(1S,2S)-2-hydroxycyclohexyl]amino}imidazo[1,2-b]pyridazine-3-carbonitrile] | 450 nM | 640 nM
18 | CN1CCN(c2cccc(Nc3cc(N[C@@H]4CCCC[C@H]4O)nn4c(C#N)cnc34)n2)CC1 [Example 62, 6-{[(1R,2R)-2-hydroxycyclohexyl]amino}-8-{[6-(4-methylpiperazin-1-yl)pyridin-2-yl]amino}imidazo[1,2-b]pyridazine-3-carbonitrile] | 290 nM | 200 nM
19 | CC1(C(=O)Nc2cccc(Nc3cc(N[C@@H]4CCCC[C@H]4O)nn4c(C#N)cnc34)n2)CC1 [Example 8, N-{6-[(3-cyano-6-{[(1R,2R)-2-hydroxycyclohexyl]amino}imidazo[1,2-b]pyridazin-8-yl)amino]pyridin-2-yl}-1-methylcyclopropane-1-carboxamide] | 490 nM | 280 nM
20 | CS(=O)(=O)N1CCN(c2cccc(Nc3cc(N[C@@H]4CCCC[C@H]4O)nn4c(C#N)cnc34)n2)CC1 [Example 63, 6-{[(1R,2R)-2-hydroxycyclohexyl]amino}-8-{[6-(4-methanesulfonylpiperazin-1-yl)pyridin-2-yl]amino}imidazo[1,2-b]pyridazine-3-carbonitrile] | 110 nM | 550 nM
21 | N#Cc1cnc2c(Nc3ccc(C(=O)NCC4CC4)cn3)cc(NCC3CC3)nn12 [Example 51, 6-({3-cyano-6-[(cyclopropylmethyl)amino]imidazo[1,2-b]pyridazin-8-yl}amino)-N-(cyclopropylmethyl)pyridine-3-carboxamide] | 150 nM | 160 nM
22 | N#Cc1cnc2c(Nc3ccc(C(=O)N4CCCC4)c(N4CC(F)C4)n3)cc(N[C@H]3CCCC[C@@H]3O)nn12 [Example 15, 8-{[6-(3-fluoroazetidin-1-yl)-5-(pyrrolidine-1-carbonyl)pyridin-2-yl]amino}-6-{[(1S,2S)-2-hydroxycyclohexyl]amino}imidazo[1,2-b]pyridazine-3-carbonitrile] | 650 nM | 820 nM
23 | CC(C)(C)NC(=O)c1cccc(Nc2cc(NC34CC5CC(CC(O)(C5)C3)C4)nn3c(C#N)cnc23)n1 [Example 17, N-tert-butyl-6-({3-cyano-6-[(3-hydroxyadamantan-1-yl)amino]imidazo[1,2-b]pyridazin-8-yl}amino)pyridine-2-carboxamide] | 420 nM | 490 nM
24 | N#Cc1cnc2c(Nc3ccc(C(=O)NCC4CCCO4)c(OCC(F)F)n3)cc(N[C@@H]3CCCC[C@H]3O)nn12 (stereo partly drawn) [Example 35, 6-[(3-cyano-6-{[(1R,2R)-2-hydroxycyclohexyl]amino}imidazo[1,2-b]pyridazin-8-yl)amino]-2-(2,2-difluoroethoxy)-N-[(oxolan-2-yl)methyl]pyridine-3-carboxamide] | 630 nM | 610 nM
25 | CN(C(=O)c1ccc(Nc2cc(NC3CCOCC3)nn3c(C#N)cnc23)nc1OCC(F)F)C1COC1 [Example 44, 6-({3-cyano-6-[(oxan-4-yl)amino]imidazo[1,2-b]pyridazin-8-yl}amino)-2-(2,2-difluoroethoxy)-N-methyl-N-(oxetan-3-yl)pyridine-3-carboxamide] | 240 nM | 860 nM
26 | N#Cc1cnc2c(Nc3cccc(N)n3)cc(N[C@@H]3CCCC[C@H]3O)nn12 [Example 66, 8-[(6-aminopyridin-2-yl)amino]-6-{[(1R,2R)-2-hydroxycyclohexyl]amino}imidazo[1,2-b]pyridazine-3-carbonitrile] | 710 nM | 340 nM
